Like-named read-outs stand apart in the source and are kept apart here.
What was measured:
[1] = 24 to 48 mg/m^2 for 5 consecutive days every 4 weeks; cited from earlier work
[2] = cited from earlier work
PSA expression = PSA expression by qPCR in C4-2 CRPC cells; type: cell-based, human; conditions: 10 μM abiraterone, 5 nM BI2536, alone or combined; 24 hours; FBS (FIG. 8)
Source text: RNA was isolated for analysis by qPCR.

C4-2 = assay: Cell-Titer Glo viability, C4-2; type: cell-based, human; conditions: for relative levels of proliferation: 5 nM BI2536, 10 μM abiraterone, alone or in combination, FBS, 5 days post-administration (FIG. 4); for effect on cell killing by 10 μM Abiraterone: 10, 20 and 40 μM SB203580 (FIG. 13B)
Protocol: (§1) Twenty four hours later, the indicated concentration of BI2536 and R1881 were added, representing time zero. Viability of the prostate cancer cells was assessed using Cell-Titer Glo™ according to the manufacturer's instructions.
Viability was measured for the subsequent five days using Cell-Titer Glo™ according to the manufacturer's instructions.
(§2) Cell viability was assessed after 5 days using Cell-Titer Glo™ according to the manufacturer's instructions.
(§3) Cell viability was assessed after 4 days using Cell-Titer Glo™ according to the manufacturer's instructions.

22 RV1 = assay: Cell-Titer Glo viability, 22 RV1; type: cell-based; conditions: for effect on cell killing by 10 μM Abiraterone: 10, 20 and 40 μM SB203580 (FIG. 13B)
Protocol: Cell viability of PCa cell lines to increasing doses (10, 20 and 40 μM) of the p38MAPK inhibitor SB203580, as measured using Cell Titer Glo (FIG. 13A).

[3] = cited from earlier work; remark: listed apart in the source
cell culture = conditions: cited from earlier work
xenograft tumor models = conditions: under proper dose scheduling; cited from earlier work
Plk1 = Plk1 (Homo sapiens, UniProt P53350); conditions: cited from earlier work
Plk1, sequence (P53350 whole entry): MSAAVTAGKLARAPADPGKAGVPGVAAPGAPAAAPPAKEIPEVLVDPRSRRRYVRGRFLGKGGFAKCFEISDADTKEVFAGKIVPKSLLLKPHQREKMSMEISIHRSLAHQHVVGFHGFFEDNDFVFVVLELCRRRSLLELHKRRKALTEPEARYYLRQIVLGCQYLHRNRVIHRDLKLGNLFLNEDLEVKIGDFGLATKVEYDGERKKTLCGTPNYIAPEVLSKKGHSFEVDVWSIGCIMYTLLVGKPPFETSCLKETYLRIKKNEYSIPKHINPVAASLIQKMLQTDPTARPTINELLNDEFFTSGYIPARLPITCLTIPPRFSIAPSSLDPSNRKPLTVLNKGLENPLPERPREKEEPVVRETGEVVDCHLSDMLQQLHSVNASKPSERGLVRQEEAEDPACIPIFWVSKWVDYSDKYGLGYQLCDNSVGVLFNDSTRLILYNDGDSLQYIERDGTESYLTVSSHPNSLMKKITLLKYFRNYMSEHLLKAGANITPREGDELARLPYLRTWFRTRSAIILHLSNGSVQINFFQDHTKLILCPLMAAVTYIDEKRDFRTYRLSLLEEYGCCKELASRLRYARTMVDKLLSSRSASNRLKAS

mouse xenograft models = conditions: 10 mg/kg and 20 mg/kg on days 1 and 28; cited from earlier work
[4] = system: various human tumor cell lines; conditions: cited from earlier work
[5] = cited from earlier work; remark: listed apart in the source
[6] = system: HT-29 human colorectal tumors; conditions: cited from earlier work
[7] = system: several tumor cell lines, including those that express multidrug-resistant protein 1 (MDR1); conditions: cited from earlier work
[8] = cited from earlier work; remark: listed apart in the source
[9] = system: multiple human carcinoma xenografts including HCT 116, NCI-H460, and taxane-resistant CXB1 colon carcinoma; conditions: ~25 mg/kg/day; cited from earlier work
[10] = system: panel of >50 other kinases; conditions: concentrations up to 10 μM, in vitro; cited from earlier work
[11] = in combination with afatinib; cited from earlier work
LNCaP = assay: Cell-Titer Glo viability, LNCaP; type: cell-based, human; conditions: for effect on cell killing by 10 μM Abiraterone: 10, 20 and 40 μM SB203580 (FIG. 13B)
Protocol: as §1, §2, §3
Experiments were conducted to investigate the role of the p38MAPK-MK2 pathway in prostate cancer, Western blotting was used to investigate up-regulation of MK3 and MK5 protein levels in LNCaP cells after MK2 knock down using shRNA.

HCT 116 xenografts = conditions: cited from earlier work
BxPC-3 = conditions: twice-weekly; cited from earlier work
[12] = other studies; cited from earlier work
[13] = cited from earlier work; remark: listed apart in the source
[14] = cited from earlier work; remark: listed apart in the source
A549 = conditions: twice-weekly; cited from earlier work
[15] = target: several tyrosine kinases and cyclin-dependent kinase 1 (Cdk1); conditions: cited from earlier work
[16] = cited from earlier work; remark: listed apart in the source
BT20 cells = conditions: 200 mg/kg; cited from earlier work
[17] = system: Bel-7402, MCF-7, and MIA-PaCa cells; conditions: 250 mg/kg; cited from earlier work
[18] = system: Cdc25C-T96 phosphorylation; conditions: read-out: EC50 Cdc25C-T96 phosphorylation; cited from earlier work
cell mitosis = conditions: read-out: EC50 inhibition of cell mitosis; cited from earlier work
[19] = system: cell lines, representative of both solid and hematological tumors; conditions: cited from earlier work
[20] = increasing concentrations of BI2536, csFBS (FIG. 3A)

Question: With COc1ccc(S(=O)(=O)N(C(C)=O)c2ccccc2/C=C/c2cc[n+]([O-])cc2)cc1 [HMN-214] as the compound, how does the DLTs [1] read?
Answer: The DLTs was “prolonged neutropenia, febrile neutropenia, neutropenic sepsis, electrolyte disturbance, neuropathy, and myalgia”.

Question: What about the dose-limiting toxicities ([2]; 9.9 mg/m^2/d) of the same compound?
Answer: Its dose-limiting toxicities is “severe myalgia/bone pain syndrome and hyperglycemia”.

Question: And the “maximum tolerated dose and recommended dose” value ([2]; continuous 21-day dosing schedule every 28 days)?
Answer: Its value is 8.0 mg/m^2/d.

Question: For C[C@]12CC[C@H](O)CC1=CC[C@@H]1[C@@H]2CC[C@]2(C)C(c3cccnc3)=CC[C@@H]12 [abiraterone], which PSA expression (PSA expression) is on record?
Answer: Its PSA expression is “substantially decreased”.

Question: What about the “relative levels of proliferation” value (C4-2) of the same compound?
Answer: The value was “reduced over time”.

Question: What about the “sensitivity to Abiraterone in the absence of BI2536” value (C4-2; five days, csFBS) of the same compound?
Answer: The value was “relatively resistant”.

Question: And the “sensitivity to Abiraterone in the absence of BI2536” value (22 RV1; five days, csFBS)?
Answer: The value was “relatively resistant”.

Question: With C[C@@H](Oc1cc(-n2cnc3ccc(CN4CCN(C)CC4)cc32)sc1C(N)=O)c1ccccc1C(F)(F)F [GSK461364] as the compound, how does the DLTs ([3]; in vivo) read?
Answer: Its DLTs is “grade 4 neutropenia, sepsis, and pulmonary embolism”.

Question: What about the “incidence of venous thrombotic emboli” value ([3]; in vivo) of the same compound?
Answer: The value was 20%.

Question: And the “final recommended phase II dose” value ([3]; intravenously, schedule A (days 1, 8, and 15 of 28-day cycle))?
Answer: Its value is 225 mg.

Question: And the “nature of cell culture growth inhibition” value (cell culture)?
Answer: The value was “cytostatic or cytotoxic”.

Question: And the “effect in xenograft tumor models” value (xenograft tumor models)?
Answer: The value was “tumor regression”.

Question: What does the source list for COc1ccc(S(=O)(=O)Nc2ccccc2/C=C/c2cc[n+]([O-])cc2)cc1 [HMN-176]?
Answer: direct inhibition of the enzymatic activity of Plk1 (Plk1): does not directly inhibit the enzymatic activity of Plk1; antitumor activity (mouse xenograft models): potent antitumor activity; cytotoxicity [4]: potent cytotoxicity

Question: With CC(=O)O[C@H]1CC[C@@]2(C)C(=CC[C@@H]3[C@@H]2CC[C@]2(C)C(c4cccnc4)=CC[C@@H]32)C1 [Abiraterone acetate, abiraterone acetate] as the compound, how does the solubility in water [5] read?
Answer: Its solubility in water is “practically insoluble in water”.

Question: What does the source list for COc1cc(C(=O)NC2CCN(C)CC2)ccc1Nc1ncc2c(n1)N(C1CCCC1)CC(F)(F)C(=O)N2C [RO3280]?
Answer: antitumor activity ([6]; dosed more frequently): complete tumor regression; tumor growth inhibition ([6]; once weekly at 40 mg/kg): 72%

Question: For COc1cc(C(=O)NC2CCN(C)CC2)c(F)cc1Nc1ncc2c(n1)N(C1CCCC1)CC(F)(F)C(=O)N2C [TAK-960], which “activity in tumor cell lines” value [7] is on record?
Answer: The value was “has shown activity”.

Question: Which results are given for CC[C@@H]1C(=O)N(C)c2cnc(Nc3ccc(C(=O)N[C@H]4CC[C@H](N5CCN(CC6CC6)CC5)CC4)cc3OC)nc2N1C(C)C [BI6727]?
Answer: DLTs ([8]; i.v. once every 3 weeks, 12-450 mg): neutropenia, thrombocytopenia, and febrile neutropenia; MTD ([8]; i.v. once every 3 weeks): 400 mg; recommended dose for further development based on overall tolerability ([8]; in vivo): 300 mg; growth of xenografts [9]: significantly inhibits the growth; inhibitory activity against a panel of >50 other kinases [10]: no inhibitory activity; MTD [11]: 300 mg

Question: Which results are given for C[S+]([O-])c1ccc(-c2nc(-c3ccncc3)c(-c3ccc(F)cc3)[nH]2)cc1 (centres unmarked) [SB203580]?
Answer: cell death, p38MAPK inhibition alone (C4-2; 10, 20 and 40 μM (FIG. 13A)): small amounts of cell death; effect on cell killing by 10 μM Abiraterone (C4-2): additive; effect on cell killing by 10 μM Abiraterone (C4-2; listed as p38MAPK inhibitor): modestly enhanced; cell death, p38MAPK inhibition alone (LNCaP; 10, 20 and 40 μM (FIG. 13A)): small amounts of cell death; effect on cell killing by 10 μM Abiraterone (LNCaP): additive; effect on cell killing by 10 μM Abiraterone (LNCaP; listed as p38MAPK inhibitor): modestly enhanced; cell death, p38MAPK inhibition alone (22 RV1; 10, 20 and 40 μM (FIG. 13A)): small amounts of cell death; effect on cell killing by 10 μM Abiraterone (22 RV1): additive; effect on cell killing by 10 μM Abiraterone (22 RV1; listed as p38MAPK inhibitor): modestly enhanced

Question: For CC[C@@H]1C(=O)N(C)c2cnc(Nc3ccc(C(=O)NC4CCN(C)CC4)cc3OC)nc2N1C1CCCC1 [BI2536], which PSA expression (PSA expression) is on record?
Answer: The PSA expression was “did not suppress PSA expression”.

Question: And the T/C (HCT 116 xenografts; 50 mg/kg once per week)?
Answer: The T/C was 15%.

Question: And the T/C (HCT 116 xenografts; 50 mg/kg twice per week)?
Answer: The T/C was 0.3%.

Question: What about the “relative levels of proliferation” value (C4-2) of the same compound?
Answer: The value was “reduced over time”.

Question: And the proliferation over time (C4-2; 5 nM BI2536, csFBS (FIG. 3B))?
Answer: Its proliferation over time is “reduced”.

Question: What about the viability (C4-2; [20]) of the same compound?
Answer: Its viability is “reduced”.

Question: What about the proliferation over time (LNCaP; 5 nM BI2536, csFBS (FIG. 3B)) of the same compound?
Answer: Its proliferation over time is “reduced”.

Question: And the viability (LNCaP; [20])?
Answer: Its viability is “reduced”.

Question: What about the T/C (BxPC-3) of the same compound?
Answer: The T/C was 5%.

Question: And the MTD [12]?
Answer: Its MTD is 50 to 70 mg.

Question: What about the maximum tolerated dose ([13]; day 1 schedule) of the same compound?
Answer: The maximum tolerated dose was 350 mg.

Question: And the maximum tolerated dose ([13]; days 1+8 schedule)?
Answer: The maximum tolerated dose was 200 mg.

Question: What about the safety profile ([14]; 200 mg combined with standard-dose pemetrexed) of the same compound?
Answer: Its safety profile is “acceptable safety profile”.

Question: And the “dose-limiting toxicities (DLT)” value ([14]; 325 mg with pemetrexed)?
Answer: Its value is “grade 3 pruritus and rash; grade 4 neutropenia”.

Question: What about the “maximum tolerated dose (MTD)” value ([14]; in combination with 500 mg/m^2 pemetrexed, day 1 every 3 weeks, intravenous) of the same compound?
Answer: Its value is 300 mg.

Question: And the T/C (A549)?
Answer: Its T/C is 14%.

Question: Which “synergy with Abiraterone (% viability)” value (C4-2; 5 nM docetaxel, increasing abiraterone, 4 days, csFBS (FIG. 7C)) does the source give for CC(=O)O[C@@]12CO[C@@H]1C[C@H](O)[C@@]1(C)C(=O)[C@H](O)C3=C(C)[C@@H](OC(=O)[C@H](O)[C@@H](NC(=O)OC(C)(C)C)c4ccccc4)C[C@@](O)([C@@H](OC(=O)c4ccccc4)[C@H]21)C3(C)C [Docetaxel, docetaxel] here?
Answer: Its value is “did not synergize with Abiraterone”.

Question: What about the “synergy with Abiraterone (% viability)” value (LNCaP; 5 nM docetaxel, increasing abiraterone, 4 days, FBS (FIG. 7A)) of the same compound?
Answer: Its value is “did not synergize with Abiraterone”.

Question: What about the “synergy with Abiraterone (% viability)” value (22 RV1; 5 nM docetaxel, increasing abiraterone, 4 days, csFBS (FIG. 7B)) of the same compound?
Answer: The value was “did not synergize with Abiraterone”.

Question: For COc1cc(OC)c(/C=C/S(=O)(=O)Cc2ccc(OC)c(NCC(=O)[O-])c2)c(OC)c1.[Na+] [ON 01910], which IC50 [15] is on record?
Answer: Its IC50 is 18 to 260 nM.

Question: And the DLT ([16]; at the MTD)?
Answer: The DLT was “Grade 3 abdominal pain”.

Question: What about the MTD ([16]; i.v. days 1, 4, 8, 11, 15, and 18 in 28-day cycles) of the same compound?
Answer: The MTD was 3,120 mg.

Question: And the tumor growth (BT20 cells)?
Answer: The tumor growth was “inhibition of tumor growth”.

Question: And the tumor growth [17]?
Answer: Its tumor growth is “inhibited tumor growth”.

Question: Which results are given for C[C@]1(O)CC[C@H]2[C@@H]3CCC4=CC(=O)CCC4=C3C=C[C@@]21C [R1881]?
Answer: proliferation over time in the presence of BI2536 and synthetic androgen (C4-2; 5 nM BI2536, csFBS (FIG. 3B)): somewhat rescued; viability in the presence of BI2536 and synthetic androgen (C4-2; csFBS (FIG. 3A)): somewhat rescued; proliferation over time in the presence of BI2536 and synthetic androgen (LNCaP; 5 nM BI2536, csFBS (FIG. 3B)): somewhat rescued; viability in the presence of BI2536 and synthetic androgen (LNCaP; csFBS (FIG. 3A)): somewhat rescued

Question: With Cc1ncc(CCCN(C)C)cc1Nc1ncc2c(n1)-c1ccc(C(F)(F)F)cc1NC(=S)C2 [MLN0905] as the compound, how does the EC50 [18] read?
Answer: The EC50 was 29 nM.

Question: And the EC50 (cell mitosis)?
Answer: Its EC50 is 9 nM.

Question: For CN1CCN(c2ccc(OC(F)(F)F)c(Nc3ncc4c(n3)-c3c(c(C(N)=O)nn3CCO)CC4)c2)CC1 [NMS 1286937], which “potency in proliferation assays” value [19] is on record?
Answer: Its value is “low nanomolar activity”.
